Data taken from publication PMC9128166 (Cancer Science, 2022).

Assay: Treatment-emergent adverse events
Format: in vivo, Japanese patients
[1] = Any TEAE, QD dosing period (n = 17)
[2] = Any TEAE, QW dosing period (n = 12)
[3] = Grade ≥3 TEAE, QD dosing period (n = 17)

CCOc1c([C@H](C)n2nc(C)c3c(N)ncnc32)cc(Cl)c(F)c1[C@@H]1CNC(=O)C1 [parsaclisib]
Serious TEAE of pyrexia (2 patients): 11.8%
rash (AESI), severity (3 patients): 2 patients with grade 1 and 1 patient with grade 2
nausea (TEAE) (4 of 17 patients, total): 23.5%
pyrexia (TEAE) (4 of 17 patients, total): 23.5%
Serious TEAEs (5 patients): 29.4%
TEAEs leading to dose reduction (5 patients): 29.4%
decreased neutrophil count leading to dose interruption (5 patients): 29.4%
constipation (TEAE) (6 of 17 patients, total): 35.3%
Adverse events of special interest (7 patients): 41.2%
TEAEs of grade 3 or higher (11 patients): 64.7%
Constipation [1]: 4 (23.5) n (%)
Cough [1]: 2 (11.8) n (%)
Cystitis [1]: 1 (5.9) n (%)
Diarrhea [1]: 0 (0.0) n (%)
Drug eruption [1]: 3 (17.6) n (%)
Dry eye [1]: 0 (0.0) n (%)
Dry skin [1]: 2 (11.8) n (%)
Fall [1]: 2 (11.8) n (%)
Gastritis [1]: 2 (11.8) n (%)
Headache [1]: 2 (11.8) n (%)
Hyperkalemia [1]: 0 (0.0) n (%)
Hypoalbuminemia [1]: 2 (11.8) n (%)
Insomnia [1]: 0 (0.0) n (%)
Myalgia [1]: 1 (5.9) n (%)
Nasopharyngitis [1]: 0 (0.0) n (%)
Nausea [1]: 2 (11.8) n (%)
Pyrexia [1]: 3 (17.6) n (%)
Rash [1]: 1 (5.9) n (%)
Stomatitis [1]: 2 (11.8) n (%)
Upper respiratory tract infection [1]: 2 (11.8) n (%)
Constipation [2]: 2 (16.7) n (%)
Cough [2]: 0 (0.0) n (%)
Cystitis [2]: 1 (8.3) n (%)
Diarrhea [2]: 3 (25.0) n (%)
Drug eruption [2]: 0 (0.0) n (%)
Dry eye [2]: 2 (16.7) n (%)
Dry skin [2]: 0 (0.0) n (%)
Fall [2]: 0 (0.0) n (%)
Gastritis [2]: 0 (0.0) n (%)
Headache [2]: 1 (8.3) n (%)
Hyperkalemia [2]: 2 (16.7) n (%)
Hypoalbuminemia [2]: 0 (0.0) n (%)
Insomnia [2]: 3 (25.0) n (%)
Myalgia [2]: 1 (8.3) n (%)
Nasopharyngitis [2]: 3 (25.0) n (%)
Nausea [2]: 3 (25.0) n (%)
Pyrexia [2]: 1 (8.3) n (%)
Rash [2]: 2 (16.7) n (%)
Stomatitis [2]: 0 (0.0) n (%)
Upper respiratory tract infection [2]: 0 (0.0) n (%)
Constipation (Any TEAE, Total (N = 17)): 6 (35.3) n (%)
Cough (Any TEAE, Total (N = 17)): 2 (11.8) n (%)
Cystitis (Any TEAE, Total (N = 17)): 2 (11.8) n (%)
Diarrhea (Any TEAE, Total (N = 17)): 3 (17.6) n (%)
Drug eruption (Any TEAE, Total (N = 17)): 3 (17.6) n (%)
Dry eye (Any TEAE, Total (N = 17)): 2 (11.8) n (%)
Dry skin (Any TEAE, Total (N = 17)): 2 (11.8) n (%)
Fall (Any TEAE, Total (N = 17)): 2 (11.8) n (%)
Gastritis (Any TEAE, Total (N = 17)): 2 (11.8) n (%)
Headache (Any TEAE, Total (N = 17)): 3 (17.6) n (%)
Hyperkalemia (Any TEAE, Total (N = 17)): 2 (11.8) n (%)
Hypoalbuminemia (Any TEAE, Total (N = 17)): 2 (11.8) n (%)
Insomnia (Any TEAE, Total (N = 17)): 3 (17.6) n (%)
Myalgia (Any TEAE, Total (N = 17)): 2 (11.8) n (%)
Nasopharyngitis (Any TEAE, Total (N = 17)): 3 (17.6) n (%)
Nausea (Any TEAE, Total (N = 17)): 4 (23.5) n (%)
Pyrexia (Any TEAE, Total (N = 17)): 4 (23.5) n (%)
Rash (Any TEAE, Total (N = 17)): 3 (17.6) n (%)
Stomatitis (Any TEAE, Total (N = 17)): 2 (11.8) n (%)
Upper respiratory tract infection (Any TEAE, Total (N = 17)): 2 (11.8) n (%)
Constipation [3]: 0 (0.0) n (%)
Cough [3]: 0 (0.0) n (%)
Cystitis [3]: 0 (0.0) n (%)
Diarrhea [3]: 0 (0.0) n (%)
Drug eruption [3]: 0 (0.0) n (%)
Dry eye [3]: 0 (0.0) n (%)
Dry skin [3]: 0 (0.0) n (%)
Fall [3]: 0 (0.0) n (%)
Gastritis [3]: 0 (0.0) n (%)
Headache [3]: 0 (0.0) n (%)
Hyperkalemia [3]: 0 (0.0) n (%)
Hypoalbuminemia [3]: 1 (5.9) n (%)
